IC50 data for 9 molecules are collected here from ChEMBL document CHEMBL1641362, “Inhibition of P-glycoprotein-mediated Multidrug Resistance (MDR) by N,N-bis(cyclohexanol)amine aryl esters: further restriction of molecular flexibility maintains high potency and efficacy” (Bioorg Med Chem Lett, 2011).

The assay is described as follows: Inhibition of Pgp-mediated multidrug resistance in doxorubicin-resistant human K562 cells assessed as drug level required for 50% increase in nuclear concentration of pirarubicin by fluorescence assay. It counts as cell-based. Conditions: read-out: I50.

For `COc1cc(C#CC(=O)O[C@H]2CC[C@@H](N(C)[C@H]3CC[C@@H](OC(=O)c4cc(OC)c(OC)c(OC)c4)CC3)CC2)cc(OC)c1OC` (mixture of isomers), the IC50 was 0.07 µM.

Take `COc1cc(C#CC(=O)O[C@H]2CC[C@H](N(C)[C@H]3CC[C@H](OC(=O)c4cc(OC)c(OC)c(OC)c4)CC3)CC2)cc(OC)c1OC`: the IC50 is 0.07 µM.

Turning to `COc1cc(CCC(=O)O[C@H]2CC[C@@H](N(C)[C@H]3CC[C@H](OC(=O)c4cc(OC)c(OC)c(OC)c4)CC3)CC2)cc(OC)c1OC` (mixture of isomers), the IC50 amounted to 0.35 µM.

Turning to `COc1cc(/C=C/C(=O)O[C@H]2CC[C@H](N(C)[C@H]3CC[C@@H](OC(=O)c4cc(OC)c(OC)c(OC)c4)CC3)CC2)cc(OC)c1OC` (mixture of isomers), the IC50 was 0.092 µM.

Turning to `COc1cc(C#CC(=O)O[C@H]2CC[C@H](N(C)[C@H]3CC[C@@H](OC(=O)c4cc(OC)c(OC)c(OC)c4)CC3)CC2)cc(OC)c1OC` (mixture of isomers), the IC50 was determined as 0.08 µM.

Turning to `COc1cc(C#CC(=O)O[C@H]2CC[C@@H](N(C)[C@H]3CC[C@H](OC(=O)c4cc(OC)c(OC)c(OC)c4)CC3)CC2)cc(OC)c1OC` (mixture of isomers), the IC50 turned out to be 0.02 µM.

Turning to `COc1cc(CCC(=O)O[C@H]2CC[C@H](N(C)[C@H]3CC[C@H](OC(=O)c4cc(OC)c(OC)c(OC)c4)CC3)CC2)cc(OC)c1OC` (mixture of isomers), the IC50 amounted to 0.61 µM.

In the case of `COc1cc(CCC(=O)O[C@H]2CC[C@H](N(C)[C@H]3CC[C@@H](OC(=O)c4cc(OC)c(OC)c(OC)c4)CC3)CC2)cc(OC)c1OC` (mixture of isomers), the IC50 stood at 0.63 µM.

Regarding `COc1cc(CCC(=O)O[C@H]2CC[C@@H](N(C)[C@H]3CC[C@@H](OC(=O)c4cc(OC)c(OC)c(OC)c4)CC3)CC2)cc(OC)c1OC`, the IC50 was determined as 1.1 µM.
